In US6747057B2 (priority 2001, dated 2004) one finds IC50 and melting point data, which are given here for 32 compounds.

Broadly, the IC50 is the concentration that gives 50% inhibition. The term melting point denotes the temperature, or range, at which the solid turns liquid.

Series [1] deals with Tau phosphorylation in primary cultured cerebellar neurones. Nature of the series: cells. It counts as cell-based. Particulars: Rattus norvegicus, 16 h, read-out: IC50 Tau phosphorylation inhibition in neurones measured by Tau-1 immunoreactivity.
The test system of series [2] is GSK-3. It counts as biochemical. Particulars: read-out: IC50 GSK-3 inhibition.

For the compound `O=C(CCl)c1c(Br)sc(Cl)c1Cl` [Compound 1, 1-(2-Bromo-4,5-dichloro-thiophen-3-yl)-2-chloro-ethanone], the results for the 50% inhibitory concentration (IC50) in series [1] and in series [2] were 30000 nM and 2000 nM, respectively.
Take `O=C(CCl)c1cc(Cl)c(Cl)s1` [Compound 2, 2-Chloro-1-(4,5-dichloro-thiophen-2-yl)-ethanone]: in series [2], the half-inhibitory concentration (IC50) worked out at 2500 nM.
The same measure, in the same setting: in the case of `O=C(CCl)c1cc(Br)cs1` [Compound 3, 1-(4-Bromo-thiophen-2-yl)-2-chloro-ethanone] it was 3000 nM; in that of `O=C(CCl)c1cscc1Cl` [Compound 4, 2-Chloro-1-(4-chloro-thiophen-3-yl)-ethanone], 25000 nM.
In the case of `O=C(CCl)c1c(Br)sc(Br)c1Br` [Compound 5, 2-Chloro-1-(2 4,5-tribromo-thiophen-3-yl) -ethanone], the IC50 stood at 30000 nM in series [1] and 1000 nM in series [2].
Regarding `O=C(CCl)c1cc(Cl)sc1Cl` [Compound 6, 2-Chloro-1-(2,5-dichloro-thiophen-3-yl)-ethanone], the melting point lay in the range of 43 to 44 °C. Moreover, the IC50 in series [2] came to 5000 nM.
In the case of `O=C(CCl)c1ccc(Br)s1` [Compound 8, 1-(5-Bromo-thiophen-2-yl)-2-chloro-ethanone], the half-inhibitory concentration (IC50) in series [2] was found to be 10000 nM.
Take `O=C(CCl)c1csc(C(=O)CCl)c1` [Compound 9, 2-Chloro-1-[4-(2-chloro-acetyl)-thiophen-2-yl]-ethanone]: the melting point lay in the range of 154 to 155 °C. For the same compound, the concentration for half-maximal inhibition (IC50) in series [2] was 1500 nM.
Consider `O=C(CCl)c1cccs1` [Compound 10, 2-Chloro-1-thiophen-2-yl-ethanone], for which the concentration for half-maximal inhibition (IC50) in series [2] was found to be 50000 nM.
On the same count and under the same terms, with `Cc1sc(C(=O)CCl)cc1C(=O)CCl` [Compound 11, 2-Chloro-1-[4-(2-chloro-acetyl)-5-methyl-thiophen-2-yl]-ethanone] the figure was 5000 nM; with `O=C(CCl)c1cc(Br)c(Br)s1` [Compound 14, 2-Chloro-1-(4,5-dibromo-thiophen-2-yl)-ethanone], 1000 nM.
As to `O=C(CCl)c1scc(Br)c1Br` [Compound 15, 2-Chloro-1-(3,4-dibromo-thiophen-2-yl)-ethanone], the melting point was 86 to 88 °C. The IC50 in series [2] is 500 nM.
The corresponding values for `Cc1c(C(=O)CCl)csc1C(=O)CCl` [Compound 16, 2-Chloro-1-[5-(2-chloro-acetyl)-4-methyl-thiophen-3-yl]-ethanone] are 155 to 156 °C and 2500 nM.
Take `Cc1ccsc1C(=O)CCl` [Compound 18, 2-chloro-1-(3-methyl-thiophen-2-yl)-ethanone]: the IC50 in series [2] worked out at 75000 nM.
As for `CC(=O)c1ccc(C(=O)CCl)s1` [Compound 19, 1-(5-Acetyl-thiophen-2-yl)-2-chloro-ethanone], in series [2], the IC50 came out at 50000 nM.
In turn, `CC(=O)c1csc(C(=O)CCl)c1` [Compound 20, 1-(4-Acetyl-thiophen-2-yl)-2-chloro-ethanone] displayed a melting point of 118 to 119 °C. In addition, in series [2], the half-inhibitory concentration (IC50) came out at 8000 nM.
With `O=C(CBr)c1scc(Br)c1Br` [Compound 21, 2-Bromo-1-(3,4-dibromo-thiophen-2-yl)-ethanone], the IC50 in series [2] turned out to be 1000 nM.
On the same count and under the same terms, with `O=C(CBr)c1cc(Br)c(Br)s1` [Compound 22, 2-Bromo-1-(4,5-dibromo-thiophen-2-yl)-ethanone] the figure was 1000 nM; with `O=C(CBr)c1ccc(Br)s1` [Compound 23, 2-Bromo-1-(5-bromo-thiophen-2-yl)-ethanone], 1000 nM.
Same read-out and setting: in the case of `O=C(CCl)c1ccc(Cl)cc1` [Compound 24, 2-Chloro-1-(4-chloro-phenyl)-ethanone] it was 2500 nM; in that of `O=C(CCl)c1ccccc1` [Compound 25, 2-Chloro-1-phenyl-ethanone], 50000 nM.
`O=C(CBr)c1ccc(Br)c(Br)c1` [Compound 27, 2-Bromo-1-(3,4-dibromo-phenyl)-ethanone] had a melting point of 60 to 61 °C. Besides, the 50% inhibitory concentration (IC50) in series [2] was 750 nM.
Regarding `O=C(CBr)c1ccc(Br)cc1` [Compound 28, 2-Bromo-1-(4-bromo-phenyl)-ethanone], the concentration for half-maximal inhibition (IC50) in series [2] is 500 nM.
In the case of `O=C(CBr)c1ccccc1` [Compound 30, 2-Bromo-1-phenyl-ethanone], the IC50 in series [2] stood at 5000 nM.
Same read-out and setting: in the case of `O=C(CBr)c1ccc(-c2ccccc2)cc1` [Compound 33, 1-Biphenyl-4-yl-2-bromo-ethanone] it was 2500 nM; in that of `N#Cc1ccc(C(=O)C(Br)Br)cc1` [Compound 39, 4-(2,2-Dibromo-acetyl)-benzonitrile], 1500 nM; in that of `O=C(CBr)c1ccc(C(F)(F)F)cc1` [Compound 40, 2-Bromo-1-(4-trifluoromethyl-phenyl)-ethanone], 5000 nM.
Compound `O=C(c1ccc(C(F)(F)F)cc1)C(Br)Br` [Compound 41, 2,2-Dibromo-1-(4-trifluoromethyl-phenyl)-ethanone] showed a melting point of 40 to 41 °C. Further, in series [2], the half-inhibitory concentration (IC50) came to 5000 nM.
Take `O=C(CBr)c1ccc(N2CCOCC2)cc1` [Compound 42, 2-Bromo-1-(4-morpholin-4-yl-phenyl)-ethanone]: in series [2], the IC50 came out at 6000 nM.
Turning to `N#Cc1cccc(C(=O)C(Br)Br)c1` [Compound 44, 3-(2,2-Dibromo-acetyl)-benzonitrile], the IC50 in series [2] was found to be 1000 nM.
`O=C(c1ccc(I)cc1)C(Br)Br` [Compound 45, 2,2 -Dibromo-1-(4-iodo-phenyl)-ethanone] yielded a melting point of 77 to 78 °C. In addition, the half-maximal inhibitory concentration (IC50) in series [2] is 2000 nM.
Taken in the same sequence, the figures for `Nc1c(Br)cc(C(=O)CBr)cc1Br` [Compound 47, 1-(4-Amino-3,5-dibromo-phenyl)-2-bromo-ethanone] were 146 to 147 °C and 3000 nM.
